One experiment concerns the target T1, PRMT5/MEP50 (Homo sapiens, UniProt O14744).
T1 construct: Flag-PRMT5; made in house; host or cells: Spodoptera frugiperda (SF9) insect cells, baculovirus
Kind of experiment: PRMT5 Biochemical Assay (PRMT5/MEP50 enzyme assay on peptide substrate, 3H-SAM Flashplate). To be noted: PRMT5/MEP50 4 nM, 3H-SAM 75 nM, peptide 40 nM. An excerpt:
S-adenosylmethionine (SAM), S-adenosylhomocysteine (SAH), bicine, KCl, Tween20, dimethylsulfoxide (DMSO), bovine skin gelatin (BSG), and Tris(2-carboxyethyl)phosphine hydrochloride solution (TCEP) were purchased from Sigma-Aldrich at the highest level of purity possible. ^3H-SAM was purchase from American Radiolabeled Chemicals with a specific activity of 80 C1/mmol. 384-well streptavidin Flashplates were purchased from PerkinElmer.
Peptide representative of human histone H4 residues 1-15 was synthesized with a C-terminal linker-affinity tag motif and a C-terminal amide cap by 21st Century Biochemicals.
The amplified genes were sublconed into pENTR/D/TEV (Life Technologies) and subsequently transferred by Gateway™ attL×attR recombination to pDEST8 baculvirus expression vector (Life Technologies).
Protein over-expression was accomplished by infecting exponentially growing Spodoptera frugiperda (SF9) cell culture at 1.2×10^6 cell/ml with a 5000 fold dilution of BIIC stock. Infections were carried out at 27° C. for 72 hours, harvested by centrifugation, and stored at −80° C. for purification.
Flag-PRMT5/6His-MeP50 was eluted with 300 mM Imidazole in the same buffer.
General Procedure for PRMT5/MEP50 Enzyme Assays on Peptide Substrates.
The assays were all performed in a buffer consisting of 20 mM Bicine (pH=7.6), 1 mM TCEP, 0.005% BSG, and 0.002% Tween20, prepared on the day of use. […] DMSO (1 ul) was added to Columns 11, 12, 23, 24, rows A-H for the maximum signal control and 1 ul of SAH, a known product and inhibitor of PRMT5/MEP50, was added to columns 11, 12, 23, 24, rows I-P for the minimum signal control. A cocktail (40 ul) containing the PRMT5/MEP50 enzyme and the peptide was added by Multidrop Combi (Thermo-Fisher). The compounds were allowed to incubate with PRMT5/MEP50 for 30 min at 25 degrees Celsius, then a cocktail (10 ul) containing ^3H-SAM was added to initiate the reaction (final volume=51 ul). […] The assays were stopped by the addition of non-radioactive SAM (10 ul) to a final concentration of 600 uM, which dilutes the ^3H-SAM to a level where its incorporation into the peptide substrate is no longer detectable. 50 ul of the reaction in the 384-well polypropylene plate was then transferred to a 384-well Flashplate and the biotinylated peptides were allowed to bind to the streptavidin surface for at least 1 hour before being washed three times with 0.1% Tween20 in a Biotek ELx405 plate washer. The plates were then read in a PerkinElmer TopCount plate reader to measure the quantity of ^3H-labeled peptide bound to the Flashplate surface, measured as disintegrations per minute (dpm) or alternatively, referred to as counts per minute (cpm).
Where dpm=disintegrations per minute, cmpd=signal in assay well, and min and max are the respective minimum and maximum signal controls.
Where top and bottom are the normally allowed to float, but may be fixed at 100 or 0 respectively in a 3-parameter fit. The Hill Coefficient normally allowed to float but may also be fixed at 1 in a 3-parameter fit. Y is the % inhibition and X is the compound concentration.

Experiment [1] has as its system symmetric di-methyl arginine in Z-138 cells. Kind of experiment: Z-138 Methylation Assay (In Cell Western for symmetric di-methyl arginine). The experiment is classed as cell-based. To be noted: Homo sapiens, 96 hours incubation, read-out: ICW EC50. An excerpt: Z-138 suspension cells were purchased from ATCC (American Type Culture Collection, Manassas, Va.). RPMI/Glutamax medium, penicillin-streptomycin, heat inactivated fetal bovine serum, and D-PBS were purchased from Life Technologies, Grand Island, N.Y., USA. Odyssey blocking buffer, 800 CW goat anti-rabbit IgG (H+L) antibody, and Licor Odyssey infrared scanner were purchased from Licor Biosciences, Lincoln, Nebr., USA. Symmetric di-methyl arginine antibody was purchased from EMD Millipore, Billerica, Mass., USA. 16% Paraformaldehyde was purchased from Electron Microscopy Sciences, Hatfield, Pa., USA.
Z-138 suspension cells were maintained in growth medium (RPMI 1640 supplemented with 10% v/v heat inactivated fetal bovine serum and 100 units/mL penicillin-streptomycin) and cultured at 37° C. under 5% CO2.
Cell Treatment, in Cell Western (ICW) for Detection of Symmetric Di-Methyl Arginine and DNA Content.
Z-138 cells were seeded in assay medium at a concentration of 50,000 cells per mL to a 384-well cell culture plate with 50 μL per well. Compound (100 nL) from 384 well source plates was added directly to 384 well cell plate. Plates were incubated at 37° C., 5% CO2 for 96 hours. After four days of incubation, 40 μL of cells from incubated plates were added to poly-D-lysine coated 384 well culture plates (BD Biosciences 356697). Plates were incubated at room temperature for 30 minutes then incubated at 37° C., 5% CO2 for 5 hours. After the incubation, 40 μL per well of 8% paraformaldehyde in PBS (16% paraformaldahyde was diluted to 8% in PBS) was added to each plate and incubated for 30 minutes. Plates were transferred to a Biotek 405 plate washer and washed 5 times with 100 μL per well of wash buffer (1×PBS with 0.1% Triton X-100 (v/v)). Next 30 μL per well of Odyssey blocking buffer were added to each plate and incubated 1 hour at room temperature. Blocking buffer was removed and 20 μL per well of primary antibody was added (symmetric di-methyl arginine diluted 1:100 in Odyssey buffer with 0.1% Tween 20 (v/v)) and plates were incubated overnight (16 hours) at 4° C. Plates were washed 5 times with 100 μL per well of wash buffer. Next 20 μL per well of secondary antibody was added (1:200 800 CW goat anti-rabbit IgG (H+L) antibody, 1:1000 DRAQ5 (Biostatus limited) in Odyssey buffer with 0.1% Tween 20 (v/v)) and incubated for 1 hour at room temperature. The plates were washed 5 times with 100 μL per well wash buffer then 1 time with 100 μL per well of water. Plates were allowed to dry at room temperature then imaged on the Licor Odyssey machine which measures integrated intensity at 700 nm and 800 nm wavelengths. Both 700 and 800 channels were scanned.
First, the ratio for each well was determined by:
Each plate included fourteen control wells of DMSO only treatment (minimum inhibition) as well as fourteen control wells for maximum inhibition treated with 3 μM of a reference compound (Background wells). The average of the ratio values for each control type was calculated and used to determine the percent inhibition for each test well in the plate. Reference compound was serially diluted three-fold in DMSO for a total of nine test concentrations, beginning at 3 μM. Percent inhibition was determined and IC50 curves were generated using triplicate wells per concentration of compound.

The subject of the next experiment is Z-138 cell line. Kind of experiment: Z-138 Proliferation Assay (Cell Titer Glo). The experiment is classed as cell-based. To be noted: Homo sapiens, 120 h; Z-138 cells, 5 days incubation, top concentration 20 μM. An excerpt: Z-138 Proliferation Assay
Z-138 suspension cells were purchased from ATCC (American Type Culture Collection, Manassas, Va.). RPMI/Glutamax medium, penicillin-streptomycin, heat inactivated fetal bovine serum were purchased from Life Technologies, Grand Island, N.Y., USA. V-bottom polypropylene 384-well plates were purchased from Greiner Bio-One, Monroe, N.C., USA. Cell culture 384-well white opaque plates were purchased from Perkin Elmer, Waltham, Mass., USA. Cell-Titer Glo® was purchased from Promega Corporation, Madison, Wis., USA. SpectraMax M5 plate reader was purchased from Molecular Devices LLC, Sunnyvale, Calif., USA.
Z-138 suspension cells were maintained in growth medium (RPMI 1640 supplemented with 10% v/v heat inactivated fetal bovine serum and cultured at 37° C. under 5% CO2. Under assay conditions, cells were incubated in assay medium (RPMI 1640 supplemented with 10% v/v heat inactivated fetal bovine serum and 100 units/mL penicillin-streptomycin) at 37° C. under 5% CO2.
For the assessment of the effect of compounds on the proliferation of the Z-138 cell line, exponentially growing cells were plated in 384-well white opaque plates at a density of 10,000 cells/ml in a final volume of 50 μl of assay medium. A compound source plate was prepared by performing triplicate nine-point 3-fold serial dilutions in DMSO, beginning at 10 mM (final top concentration of compound in the assay was 20 μM and the DMSO was 0.2%). A 100 nL aliquot from the compound stock plate was added to its respective well in the cell plate. […] After addition of compounds, assay plates were incubated for 5 days at 37° C., 5% CO2, relative humidity >90%. Cell viability was measured by quantitation of ATP present in the cell cultures, adding 35 μl of Cell Titer Glo® reagent to the cell plates. Luminescence was read in the SpectraMax M5 microplate reader. The concentration of compound inhibiting cell viability by 50% was determined using a 4-parametric fit of the normalized dose response curves.
For orientation: ATP-based viability assays read luminescence as a measure of living cells.

T1 sequence (O14744 with tags, fused parts or gaps): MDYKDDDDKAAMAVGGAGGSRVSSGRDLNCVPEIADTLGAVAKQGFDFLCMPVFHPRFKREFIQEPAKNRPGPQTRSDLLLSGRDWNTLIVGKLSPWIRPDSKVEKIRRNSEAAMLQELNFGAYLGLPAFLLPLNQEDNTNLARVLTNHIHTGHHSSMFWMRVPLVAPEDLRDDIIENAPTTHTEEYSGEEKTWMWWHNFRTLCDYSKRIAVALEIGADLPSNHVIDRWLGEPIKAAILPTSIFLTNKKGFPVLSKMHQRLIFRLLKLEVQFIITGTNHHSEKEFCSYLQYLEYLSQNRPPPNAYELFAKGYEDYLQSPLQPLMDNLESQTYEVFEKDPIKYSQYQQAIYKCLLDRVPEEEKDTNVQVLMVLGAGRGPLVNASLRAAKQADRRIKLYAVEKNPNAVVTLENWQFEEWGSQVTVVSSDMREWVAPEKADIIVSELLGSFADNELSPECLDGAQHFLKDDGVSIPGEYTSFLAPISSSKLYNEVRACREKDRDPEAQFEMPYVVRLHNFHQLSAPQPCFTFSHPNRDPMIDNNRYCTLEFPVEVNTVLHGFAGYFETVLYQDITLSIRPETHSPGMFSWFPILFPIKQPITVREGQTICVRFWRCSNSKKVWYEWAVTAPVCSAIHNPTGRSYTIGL
T1 sequence (Q9BQA1 with tags, fused parts or gaps partner limits assumed): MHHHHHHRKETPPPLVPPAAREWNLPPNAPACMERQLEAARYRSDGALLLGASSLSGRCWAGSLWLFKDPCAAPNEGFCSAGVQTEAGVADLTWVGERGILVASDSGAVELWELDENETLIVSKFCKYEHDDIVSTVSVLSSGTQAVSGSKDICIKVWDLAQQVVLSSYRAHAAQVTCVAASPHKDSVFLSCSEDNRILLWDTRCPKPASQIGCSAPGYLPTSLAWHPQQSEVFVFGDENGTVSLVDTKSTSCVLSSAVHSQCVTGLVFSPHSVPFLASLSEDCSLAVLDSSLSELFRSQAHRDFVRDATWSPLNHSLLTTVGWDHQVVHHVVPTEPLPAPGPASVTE

The term IC50 denotes the concentration that gives 50% inhibition. The term EC50 denotes the concentration at which the effect is half-maximal. In the case of `O=C(CCc1nc2ccccc2[nH]1)NC[C@H](O)CN1CCc2ccccc2C1` [Compound 175, (S)-3-(1H-benzo[d]imidazol-2-yl)-N-(3-(3,4-dihydroisoquinolin-2(1H)-yl)-2-hydroxypropyl)propanamide], at PRMT5/MEP50, the IC50 is below 0.1 µM. Moreover, the EC50 in experiment [1] is below 0.1 µM; in the experiment on Z-138 cell line it was 0.101 to 1 µM.

The values are drawn from patent publication US20190083482A1, “PRMT5 INHIBITORS AND USES THEREOF” (Epizyme, Inc., priority 2017, published 2019).
